Source: patent publication US6982348B2, “Aminoethanol derivatives” (Takeda Pharmaceutical Company Limited, priority 2001, dated 2006)

Key:
human CETP [1] = molecular target: T1, human CETP (Homo sapiens, UniProt P11597); experiment: Assay of cholesteryl ester transfer protein inhibitory activity, standard measurement system; assay type: biochemical; details: BODIPY-CE-ME donor, VLDL-LDL acceptor, reaction at 37° C. for 30 min.
T1 sequence (P11597 18-493): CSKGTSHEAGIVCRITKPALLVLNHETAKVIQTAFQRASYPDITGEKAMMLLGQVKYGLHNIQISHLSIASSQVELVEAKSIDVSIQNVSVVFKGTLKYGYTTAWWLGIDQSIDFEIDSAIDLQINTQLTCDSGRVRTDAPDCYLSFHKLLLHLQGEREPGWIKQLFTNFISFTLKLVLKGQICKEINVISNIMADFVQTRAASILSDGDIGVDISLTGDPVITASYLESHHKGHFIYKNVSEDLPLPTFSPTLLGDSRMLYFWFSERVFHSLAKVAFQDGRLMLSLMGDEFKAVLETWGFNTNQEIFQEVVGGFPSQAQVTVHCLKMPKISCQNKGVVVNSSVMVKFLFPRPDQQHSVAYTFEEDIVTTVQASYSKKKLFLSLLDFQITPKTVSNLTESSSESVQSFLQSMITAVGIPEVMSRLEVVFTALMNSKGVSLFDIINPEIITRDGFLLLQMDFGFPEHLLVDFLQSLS
Experimental: (§1) Assay of Cholesteryl Ester Transfer Protein Inhibitory Activity
(§2) Fresh rabbit serum was adjusted with KBr to the density of (1.063 g/ml), and the fractions (VLDL-LDL, density<1.063 g/ml) floated by ultra-centrifugation operation (SW41—Ti, 40,000 rpm, 18 hrs., 4° C., Beckman model L8-55) were collected, subjected to dialysis against 0.15 M NaCl-10 mM Tris-HCl, pH 7.4 (TBS), sterilized by filtration through a filter and preserved at 4° C.
(§3) A solution of BODIPY-CE (0.6 mg) in chloroform was added to egg PC (phosphatidylcholine) ([…]) and triolein (2 mg), and after dissolution, the lipid was air dried under a nitrogen gas reflux and the solvent was removed under high vacuum. To this lipid was added an apo HDL solution (7.5 ml) obtained by defatting human HDL (1.063<d<1.21) with chloroform-methanol (2:1, v/v), dissolving in 6 M urea-containing TBS and dialyzing against TBS, and the mixture was subjected to sonication (BRANSON SONIFIRE CELL DISRUPTOR 200, dial 6, 5 min×4) to give BOBIPY-CE-ME. After centrifugation (CENTRIPREP 10), it was sterilized by filtration through a filter and preserved at 4° C.
(§4) The test compound (20% DMSO solution, 5 μl), TS (75 μl), acceptor lipoprotein (VLDL-LDL, 20 μl) and partially purified human CETP (25 μl) were mixed and incubated at 37° C. for 30 min. BODIPY-CE-ME (25 μl) was added (total 150 μl) and a transfer reaction was started. After reaction at 37° C. for 30 min., fluorescence intensity was measured at Ex. 490 nm/Em. 530 nm. The CETP inhibitory activity (% inhibition) was calculated by the following formula. [formula] 4) 50% Human Plasma-Containing Measurement System
(§5) The IC50 value was determined as a concentration showing 50% inhibition by plotting the logarithm of the concentration of test compound and % inhibition.

human CETP [2] = molecular target: T1, human CETP; experiment: Assay of cholesteryl ester transfer protein inhibitory activity, 50% human plasma-containing measurement system; assay type: biochemical; details: BODIPY-CE-ME donor, VLDL-LDL acceptor, reaction at 37° C. for 60 min.
Experimental: as §1, §2, §3
as §4, with “5 μl), human plasma (75 μl),” for “5 μl), TS (75 μl),”, “C. for 60 min., fluorescence” for “C. for 30 min., fluorescence”, “formula. [formula]” for “formula. [formula] 4) 50% Human Plasma-Containing Measurement System”
as §5

Row | IC50 (human CETP [1]) [µM] | IC50 (human CETP [2]) [µM] | melting point [°C] | SMILES
1 | 0.17 | 1.4 | 193 to 194 | O=C(N[C@H](Cc1ccc2c(c1)OC(F)(F)C(F)(F)O2)[C@@H](O)c1ccc(F)cc1)c1ccc(F)c2ccccc12 (racemic) [Example 271, 4-fluoro-N-{(1RS,2SR)-2-(4-fluorophenyl)-2-hydroxy-1-[(2,2,3,3-tetrafluoro-2,3-dihydro-1,4-benzodioxin-6-yl)methyl]ethyl}-1-naphthamide]
2 | 0.052 | 3.1 | 112 to 113 | CC(C)(C)c1ccc(C[C@@H](NC(=O)c2cccc3c(Cl)cccc23)[C@@H](O)c2cccc(Cl)c2)cc1 (racemic) [Example 274, N-[(1RS,2SR)-1-(4-tert-butylbenzyl)-2-(3-chlorophenyl)-2-hydroxyethyl]-5-chloro-1-naphthamide]
